The values below come from patent US20240002397A1, “3-AMINO PYRROLIDINE AND PIPERIDINE MACROCYCLIC OREXIN RECEPTOR AGONISTS” (Merck Sharp & Dohme LLC, priority 2020, published 2024).

What is called Emax is the size of the effect at its maximum, as opposed to the concentration needed.

For the first experiment, the target named is T1, human OX2R (Homo sapiens, UniProt O43614).
T1 sequence (O43614 1-444): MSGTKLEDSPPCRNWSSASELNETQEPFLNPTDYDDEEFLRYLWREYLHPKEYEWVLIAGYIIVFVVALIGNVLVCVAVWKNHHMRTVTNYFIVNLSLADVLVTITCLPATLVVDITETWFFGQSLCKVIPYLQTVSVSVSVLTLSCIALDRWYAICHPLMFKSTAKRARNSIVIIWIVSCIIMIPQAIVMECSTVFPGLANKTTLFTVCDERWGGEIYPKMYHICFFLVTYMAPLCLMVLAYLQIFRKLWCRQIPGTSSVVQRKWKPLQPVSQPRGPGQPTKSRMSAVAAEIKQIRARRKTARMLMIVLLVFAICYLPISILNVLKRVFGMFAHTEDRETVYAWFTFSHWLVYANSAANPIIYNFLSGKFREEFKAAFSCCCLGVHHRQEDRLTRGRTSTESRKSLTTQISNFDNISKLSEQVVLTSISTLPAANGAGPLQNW
The experiment can be described thus: IPOne (IP-1) orexin receptor agonist assay in CHO cells expressing human OX2R. The settings on record: CHO, hOX2R IP-One; percentage of mean max effect of a reference compound at 1 uM with 100% activity.
Description: In atypical experiment, the OX1 and OX2 receptor agonist activity is determined in accordance with the following general experimental method. Chinese hamster ovary (CHO) cells expressing human OX1R and/or the human OX2R were grown in Iscove's modified DMEM containing glutaMAX™, 1% G418, 100 U/mL penicillin, 100 μg/mL streptomycin and 10% heat-inactivated qualified fetal bovine serum (FBS). […] During this incubation, IP-one detection reagents were prepared (38:1:1 lysis buffer:D2:AB-cryptate reagents).
For each compound, data were fit to a four parameter logistic fit (ActivityBase software) and the EC50 was reported as the inflection point of the resulting curve.
For the compound `C[C@@H]1C[C@H](NS(C)(=O)=O)C2COC3CCC(CC3)c3nc(ccc3C(F)(F)F)N(C)CCCOC(=O)N21` (some centres unmarked) [Example 94, N-((2^1S,2^4S,5^2R,5^3S,5^5R)-5^5,1^1-dimethyl-6-oxo-1^3-(trifluoromethyl)-3,7-dioxa-11-aza-1(2,6)-pyridina-5(2,1)-pyrrolidina-2(1,4)-cyclohexanacycloundecaphane-5^3-yl)methanesulfonamid], the Emax was found to be 37.5%.

For the compound `COc1cc2nc(c1)N(C)CCCOC(=O)N1C(COC3CCC2CC3)[C@@H](NS(C)(=O)=O)C[C@H]1C` (some centres unmarked) [Example 95, N-((2^1S,2^4S,5^2R,5^3S,5^5R)-1^4-methoxy-5^5,1^1-dimethyl-6-oxo-3,7-dioxa-11-aza-1(2,6)-pyridina-5(2,1)-pyrrolidina-2(1,4)-cyclohexanacycloundecaphane-5^3-yl)methanesulfonamide], the Emax worked out at 98.4%.

In turn, `CS(=O)(=O)N[C@H]1C[C@@H](CO)N2C(=O)OCCOc3ccc(C(F)(F)F)c(n3)[C@H]3CC[C@H](CC3)OC[C@@H]12` [Example 96, N-((2^1R,2^4R,5^2R,5^3S,5^5S)-5^5-(hydroxymethyl)-6-oxo-1^3-(trifluoromethyl)-3,7,10-trioxa-1(2,6)-pyridina-5(2,1)-pyrrolidina-2(1,4)-cyclohexanacyclodecaphane-5^3-yl)methanesulfonamide] registered an Emax of 100%.

Compound `CS(=O)(=O)N[C@H]1C[C@@H](CO)N2C(=O)OCCCOc3cc(C(F)F)cc(n3)C3CCC(CC3)OCC12` (some centres unmarked) [Example 97, N-((2^1S,2^4S,5^2R,5^3S,5^5S)-1^4-(difluoromethyl)-5^5-(hydroxymethyl)-6-oxo-3,7,11-trioxa-1(2,6)-pyridina-5(2,1)-pyrrolidina-2(1,4)-cyclohexanacycloundecaphane-5^3-yl)methanesulfonamide] had an Emax of 98.4%.

The compound `CN(C)C[C@@H]1C[C@H](NS(C)(=O)=O)[C@@H]2CO[C@H]3CC[C@H](CC3)c3nc(ccc3C(F)(F)F)OCCOC(=O)N12` [Example 98, N-((2^1R,2^4R,5^2R,5^3S,5^5S)-5^5-((dimethylamino)methyl)-6-oxo-1^3-(trifluoromethyl)-3,7,10-trioxa-1(2,6)-pyridina-5(2,1)-pyrrolidina-2(1,4)-cyclohexanacyclodecaphane-5^3-yl)methanesulfonamide] yielded an Emax of 100%.

In the case of `CS(=O)(=O)N[C@H]1C[C@@H](CC(N)=O)N2C(=O)OCCOc3ccc(C(F)(F)F)c(n3)C3CCC(CC3)OCC12` (some centres unmarked) [Example 99, 2-((2^1R,2^4R,5^2R,5^3S,5^5S)-5^3-(methylsulfonamido)-6-oxo-1^3-(trifluoromethyl)-3,7,10-trioxa-1(2,6)-pyridina-5(2,1)-pyrrolidina-2(1,4)-cyclohexanacyclodecaphane-5^5-yl)acetamide], the maximal response (Emax) is 100%.

In turn, `CN(C)C[C@@H]1C[C@H](NS(C)(=O)=O)C2COC3CCC(CC3)c3cc(C(F)F)cc(n3)OCCCOC(=O)N21` (some centres unmarked) [Example 100, N-((2^1S,2^4S,5^2R,5^3S,5^5S)-1^4-(difluoromethyl)-5^5-((dimethylamino)methyl)-6-oxo-3,7,11-trioxa-1(2,6)-pyridina-5(2,1)-pyrrolidina-2(1,4)-cyclohexanacycloundecaphane-5^3-yl)methanesulfonamide] yielded a maximal response (Emax) of 102%.

Take `CNC[C@@H]1C[C@H](NS(C)(=O)=O)C2COC3CCC(CC3)c3cc(C(F)F)cc(n3)OCCCOC(=O)N21` (some centres unmarked) [Example 101, N-((2^1S,2^4S,5^2R,5^3S,5^5S)-1^4-(difluoromethyl)-5^5-((methylamino)methyl)-6-oxo-3,7,11-trioxa-1(2,6)-pyridina-5(2,1)-pyrrolidina-2(1,4)-cyclohexanacycloundecaphane-5^3-yl)methanesulfonamide]: the Emax amounted to 102%.

Turning to `CS(=O)(=O)N[C@H]1C[C@@H](CC(N)=O)N2C(=O)OCCCOc3cc(C(F)F)cc(n3)C3CCC(CC3)OCC12` (some centres unmarked) [Example 102, 2-((2^1S,2^4S,5^2R,5^3S,5^5S)-1^4-(difluoromethyl)-5^3-(methylsulfonamido)-6-oxo-3,7,11-trioxa-1(2,6)-pyridina-5(2,1)-pyrrolidina-2(1,4)-cyclohexanacycloundecaphane-5^5-yl)acetamide], the Emax is 99.8%.

On to `COc1cc2nc(c1)C1CCC(CC1)OCC1[C@@H](NS(=O)(=O)CF)C[C@@H](C)N1C(=O)OCCO2` (some centres unmarked) [Example 104, 1-fluoro-N-((2^1R,2^4R,5^2R,5^3S,5^5R)-1^4-methoxy-5^5-methyl-6-oxo-3,7,10-trioxa-1(2, 6)-pyridina-5(2,1)-pyrro-lidina-2(1,4)-cyclohexana-cyclodecaphane-5^3-yl)methanesulfonamide], for which the Emax is 102%.

In turn, `COc1cc2nc(c1)C1CCC(CC1)OCC1[C@@H](NS(=O)(=O)C(F)F)C[C@@H](C)N1C(=O)OCCO2` (some centres unmarked) [Example 105, 1,1-difluoro-N-((2^1R,2^4R,5^2R,5^3S,5^5R)-14-methoxy-5^5-methyl-6-oxo-3,7,10-trioxa-1(2,6)-pyridina-5(2,1)-pyrrolidina-2(1,4)-cyclohex-anacyclodecaphane-5^3-yl)methanesulfonamide] gave an Emax of 99.7%.

Compound `CCS(=O)(=O)N[C@H]1C[C@@H](C)N2C(=O)OCCCOc3cc(OC)cc(n3)C3CCC(CC3)OCC12` (some centres unmarked) [Example 106, N-((2^1R,2^4R,5^2R,5^3S,5^5R)-1^4-methoxy-5^5-methyl-6-oxo-3,7,11-trioxa-1(2,6)-pyridina-5(2,1)-pyrrolidina-2(1,4)-cyclohex-anacycloundecaphane-5^3-yl)ethanesulfonamide] displayed an Emax of 97.3%.

`COc1cc2nc(c1)C1CCC(CC1)OCC1[C@@H](NS(=O)(=O)CF)C[C@@H](C)N1C(=O)OCCCO2` (some centres unmarked) [Example 107, 1-fluoro-N-((2^1R,2^4R,5^2R, 5^3S,5^5R)-1^4-methoxy-5^5-methyl-6-oxo-3,7,11-trioxa-1(2,6)-pyridina-5(2,1)-pyrrolidina-2(1,4)-cyclohexanacycloundecaphane-5^3-yl)methanesulfonamide] showed an Emax of 101%.

In turn, `COc1cc2nc(c1)C1CCC(CC1)OCC1[C@@H](NS(=O)(=O)C(F)F)C[C@@H](C)N1C(=O)OCCCO2` (some centres unmarked) [Example 108, 1,1-difluoro-N-((2^1R,2^4R,5^2R,5^3S,5^5R)-14-methoxy-5^5-methyl-6-oxo-3,7,11-trioxa-1(2,6)-pyridina-5(2,1)-pyrrolidina-2(1,4)-cyclohexanacycloundecaphane-5^3-yl)methanesulfonamide] registered an Emax of 104%.

`C[C@@H]1C[C@H](NS(C)(=O)=O)[C@@H]2COC3CCC(CC3)c3ccc(F)c(n3)CCCCOC(=O)N12` [Example 110, N-((2^1S,2^4S,5^2R,5^3S,5^5R)-1^5-fluoro-5^5-methyl-6-oxo-3,7-dioxa-1(2,6)-pyridina-5(2,1)-pyrrolidina-2(1,4)-cyclohexanacycloundecaphane-5^3-yl)methanesulfonamide]: the Emax is 102%.

Compound `COc1cc2nc(c1)C1CCC(CC1)OC[C@H]1[C@@H](NS(C)(=O)=O)C[C@@H](C)N1C(=O)OCCCC2` [Example 111, N-((2^1S,2^4S,5^2R,5^3S,5^5R)-1^4-methoxy-5^5-methyl-6-oxo-3,7-dioxa-1(2,6)-pyridina-5(2,1)-pyrrolidina-2(1,4)-cyclohexanacycloundecaphane-5^3-yl)methanesulfonamide] displayed an Emax of 99.6%.

The same experiment, now with this note: hOX2R IP-One; percentage of mean max effect of a reference compound at 1 uM with 100% activity.
Consider `CCS(=O)(=O)NC1CC(C)N2C(=O)OCCOc3cc(OC)cc(n3)C3CCC(CC3)OCC12` (centres unmarked) [Example 103, N-((2^1R,2^4R,5^2R,5^3S,5^5R)-1^4-methoxy-5^5-methyl-6-oxo-3,7,10-trioxa-1(2,6)-pyridina-5(2,1)-pyrrolidina-2(1,4)-cyclohexanacyclodecaphane-5^3-yl)ethanesulfonamide], for which the “Emax (%)” value stood at 103.0%.

Consider `CC1CC(NS(C)(=O)=O)C2COC3CCC(CC3)c3cc(C(F)(F)F)cc(n3)CCCCOC(=O)N12` (centres unmarked) [Example 109, N-((2^1S,2^4S,5^2R,5^3S,5^5R)-5^5-methyl-6-oxo-14-(trifluoromethyl)-3,7-dioxa-1(2,6)-pyridina-5(2,1)-pyrrolidina-2(1,4)-cyclohexanacycloundecaphane-5^3-yl)methanesulfonamide], for which the “Emax (%)” value is 102.4%.

In the case of “N-((2^1S,2^4S,5^2R,5^3S,5^5R)-1^5- fluoro-1^4-methoxy-5^5-methyl- 6-oxo-3,7,10-trioxa-1(2,6)- pyridina-5(2,1)-pyrrolidina- 2(1,4)-cyclohexanacyclode caphane-5^3-yl)methane sulfonamide [Example 74]”, the “Emax (%)” value was determined as 110.2%.

Take “N′-((2^1S,2^4S,5^2R,5^3S)-6-oxo-3,7-dioxa-5(2,1)-piperidina-1(1,2)-benzena-2(1,4)-cyclohexanacyclononaphane-5^3-yl)-N,N-dimethyl-sulfamide [Example 37]”: the “Emax (%)” value is listed as 5.8%.
